The nature of data set [1]: Cytotoxicity (CC50) in TZM-bl cells, luminescence (CTG). In kind it is cell-based. As to conditions: human. From the text:
(§1) In this Example, TZM-bl cells (available from NIH AIDS Reagent Program ([…].org/Index.cfm)) were used for individual evaluations. TZM-bl cells have CD4/CCR5/CXCR4 on the surface and express luciferase when infected with HIV. In this manner, TZM-bl cells serve as indicator cells. In the cells, β-galactosidase gene linked to HIV-1 LTR sequence is integrated. When the cells are infected with HIV-1, the tat gene of HIV-1 expresses a transcriptional activator Tat, which acts on the promoter region of LTR to express β-galactosidase. When a substrate is added, enzymatic cleavage occurs to produce galactose and luciferin. Luciferin is oxidized by luciferase to generate chemiluminescence, which can be detected by a luminometer to determine the number of cells infected with HIV-1. […] After each compound was serially diluted, TZM-bl cells (1×10^4) were added, cultured for 48 hours and collected. A Luc reporter reagent was added and the amount of luminescence (reagent: CTG) was measured […].

For data set [2], the system named is HIV isolate (KP5mvcR). The data set can be described thus: microbe, parasite or virus in culture. The format is cell-based, HIV-1. As to conditions: for SI (selectivity index): CC50/IC50, TZM-bl cells, KP-5mvcR; for IC50: read-out: IC50 KP-5mvcR. The text has this: In this Example, TZM-bl cells (available from NIH AIDS Reagent Program (https://www.aidsreagent.org/Index.cfm)) were used for individual evaluations. TZM-bl cells have CD4/CCR5/CXCR4 on the surface and express luciferase when infected with HIV. In this manner, TZM-bl cells serve as indicator cells. In the cells, β-galactosidase gene linked to HIV-1 LTR sequence is integrated. When the cells are infected with HIV-1, the tat gene of HIV-1 expresses a transcriptional activator Tat, which acts on the promoter region of LTR to express β-galactosidase. When a substrate is added, enzymatic cleavage occurs to produce galactose and luciferin. Luciferin is oxidized by luciferase to generate chemiluminescence, which can be detected by a luminometer to determine the number of cells infected with HIV-1.
2) IC50 (Calculation of Anti-HIV Activity)
After each compound was serially diluted, TZM-bl cells (1×10^4) and 100TCID50 of HIV isolate (KP5mvcR) were added, and then, cultured for 48 hours. Thereafter, the cells were collected and a Luc reporter reagent was added. The amount of luminescence was measured to calculate the inhibition rate of infection (IC50). The HIV isolate (KP5mvcR) is an MVC resistant HIV clone, which was obtained by subjecting a clinical isolate KP-5 (YTA) to passage culture with PM1 CCR5 cells in the presence of MVC over 48 passages to obtain MVC resistant KP-5Env, which was inserted into NL43 vector (Yoshimura K, et al., J. Gen. Virol., 95, 1816-1826, 2014).

The nature of data set [3]: In vitro decomposition releasing the alkyl or PEG chain in PBS. The format is physicochemical. The settings on record: PBS of pH7.4 at 37° C. How it is done: The compound obtained in Example 5 (YIS-527) has an alkyl chain bound to a side chain of YIR-821 via a —C(═O)O— group, and it is assumed that the compound is hydrolyzed in vitro and in vivo. Accordingly, in this Example, an alkyl chain released in vitro was measured.
With respect to compound (YIS-540) having a PEG chain bound to a side chain of YIR-821 via a —C(═O)O— group obtained in Example 6, the PEG chain released in vitro was measured in the same manner as in Example 7.

In data set [4] the test system is TZM-bl cells. The data set can be described thus: Cytotoxicity (CC50) in TZM-bl cells, luminescence (CTG). The format is cell-based. As to conditions: TZM-bl cells, cultured for 48 hours.
Text: as §1

A short description of data set [5]: Blood half-life after intravenous injection, blood concentration by HPLC. In kind it is in vivo, Macaque monkey. How it is done: A Macaque monkey (MM616, body weight 8.00 kg) was intravenously injected with YIR-821 at a dose of 192 mg (10.1 mg/mL). A blood sample was taken from the monkey, 21, 39, 63, 91, 98, 113, 143, 201, 328 and 453 minutes later, and the concentration of YIR-821 in the blood was measured by HPLC.
HPLC conditions are as follows. • Measuring device: JASCO PU-2089 plus (JASCO Corporation, Ltd.) • Column: Cosmosil 5C18-ARII column (4.6×250 mm, Nacalai Tesque, Inc.) • Solvent A: H2O containing 0.1% (v/v) TFA • Solvent B: CH3CN containing 0.1% (v/v) TFA • Gradient: 20-50% solvent B in solvent A, 30 minutes • Flow rate: 1 cm^3/min • Detection: Detection at 260 nm-UV
In the same manner as in Reference Example 1, Macaque monkey (MM616, body weight 8.78 kg) was intravenously injected with TKB-002 trifluoroacetate obtained in Example 2 at a dose of 23.4 μmol (33.2 mg/20 mL). A blood sample was taken before, during and after administration (at a time point of 10 minutes, 37 minutes, 1 hour, 2.5 hours, 4.5 hours, 6.5 hours and 24 hours after administration). Blood concentration was measured by HPLC in the same conditions as in Reference Example 1.

The nature of data set [6]: Stability on incubation with human liver microsomes, HPLC. The settings on record: 60 minutes at 37° C., NADPH, NaPB pH 7.4. The format is in vitro ADME. How it is done: More specifically, TKB-002 trifluoroacetate was dissolved in a 100 mM sodium phosphate buffer (NaPB, pH 7.4) to obtain a 0.3 mM solution. This solution (183 μL) was mixed with 20 mM NADPH (2 μL) in 100 mM NaPB (pH 7.4), and 5 μL of 20 mg/mL human liver microsome (Human Microsomes, 50 Donors (ThermoFisher Scientific, cat #: HMMCPL, Lot #: PL050E-A)) solution. After the mixture was pre-incubated at 37° C. for 5 minutes, 20 mM NADPH solution (10 μL) was added to the mixture, which was incubated while gently stirring for 60 minutes at 37° C.
Subsequently, 200 μL of ethyl acetate was added to the mixture to terminate the reaction. The mixture was stirred by a vortex mixer and centrifuged at 3,000 rpm for 5 minutes. The supernatant was filtered and ethyl acetate was removed with nitrogen gas.
To the mixture, 50 μL of MeCN containing 0.1% TFA was added and analysis was carried out by HPLC in the same conditions as in Reference Example 1 and Example 4.

Where [7] appears, read: Human immunodeficiency virus 1, TZM-bl, 48 h.
Setting [8] is: TZM-bl cells, 100TCID50 of KP5mvcR, 48 hours.

From patent publication US12508251B2, “CD4 mimic compound with anti-HIV activity” (NATIONAL UNIVERSITY CORPORATION KUMAMOTO UNIVERSITY, priority 2019, dated 2025) come the findings set out here.

Structures are written as SMILES. “Also recorded” adds a separate entry of the source. Where two headings read alike, the source gives them in different places.

The term CC50 denotes the concentration giving 50% cytotoxicity. For orientation: IC50 means the concentration needed to halve the response being measured. `COCCOCCOCCOCCOCCNC(=O)CCC(=O)N[C@@H](CCCNC(=N)N)C(=O)NCCN1CCC(NC(=O)C(=O)Nc2ccc(Cl)cc2)CC12CCCCC2` (stereo partly drawn) [TKB-001, N^1-((2S)-1-((2-(4-(2-((4-chlorophenyl)amino)-2-oxoacetamido)-1-azaspiro[5.5]undecan-1-yl)ethyl)amino)-5-guanidino-1-oxopentan-2-yl)-N4-(2,5,8,11,14-pentaoxahexadecan-16-yl)succinamide]: the cytotoxic concentration (CC50) at 48 h in data set [1] was over 100 µM. In addition, in data set [2], the “SI (selectivity index)” value is on record as over 769. In data set [2] (setting [7]), the IC50 was determined as 130 ± 26 nM.
Consider `O=C1Nc2ccc(Cl)cc2[C@@](C#CC2CC2)(C(F)(F)F)O1` [EFV, efavirenz, reference compound], for which, in data set [1] (TZM-bl cells, cultured for 48 hours, read-out: CC50), the half-maximal cytotoxic concentration (CC50) at 48 h was 28 ± 3.4 µM. The “SI (selectivity index)” value in data set [2] is 6,829. In data set [2] (setting [7]), the IC50 turned out to be 4.1 ± 0.99 nM.
In data set [1], `COCCOCCOCCOCCOCCNC(=O)CCC(=O)OC(CCCNC(=N)N)C(=O)NCCN1CCC(NC(=O)C(=O)Nc2ccc(Cl)cc2)CC12CCCCC2` (stereo not drawn) [YIS-540, 1-((2-(4-(2-((4-chlorophenyl)amino)-2-oxoacetamido)-1-azaspiro[5.5]undecan-1-yl)ethyl)amino)-5-guanidino-1-oxopentan-2-yl 18-oxo-2,5,8,11,14-pentaoxa-17-azahenicosan-21-oate] gave a CC50 at 48 h of 109 ± 8.2 µM. Moreover, in data set [3], the “decomposition releasing the alkyl or PEG chain” value is on record as “decomposition reaction was observed”. Besides, the “SI (selectivity index)” value in data set [2] worked out at 6412. Besides, in data set [2] (setting [7]), the half-maximal inhibitory concentration (IC50) came out at 17 ± 11 nM.
In data set [4], `CC1(C)CC(NC(=O)C(=O)Nc2ccc(Cl)cc2)CC(C)(C)N1` [NBD-556, reference compound] came in with a CC50 of 177 ± 9.5 µM. For the same compound, the IC50 in data set [2] (setting [8]) was 270 ± 52 nM.
As a reminder, the half-life is the time needed for the level to fall by half in the phase considered. Consider `COCCOCCOCCOCCOCCOCCOCCOCCOCCOCCOCCOCCNC(=O)CCC(=O)N[C@@H](CCCNC(=N)N)C(=O)NCCN1CCC(NC(=O)C(=O)Nc2ccc(Cl)cc2)CC12CCCCC2` (stereo partly drawn) [TKB-002, N^1-((2S)-1-((2-(4-(2-((4-chlorophenyl)amino)-2-oxoacetamido)-1-azaspiro[5.5]undecan-1-yl)ethyl)amino)-5-guanidino-1-oxopentane-2-yl)-N^4-(2,5,8,11,14,17,20,23,26,29,32,35-dodecaoxaheptatriacontan-37-yl)succinamide], for which the “blood half-life relative to YIR-821” value in data set [5] (Macaque monkey, intravenous injection) was found to be 3.48 times. In addition, the half-life in data set [5] (blood, 23.4 μmol, Macaque monkey MM616, intravenous injection) was 108 min. This compound returned a CC50 at 48 h in data set [1] of over 100 µM. The “stability in the presence of human liver microsomes (HPLC peak intensity)” value in data set [6] is “the intensity of the peak was the same as before incubation; also recorded: stable even in the presence of human liver microsomes”. Also, the “SI (selectivity index)” value in data set [2] is >1,000. The half-maximal inhibitory concentration (IC50) in data set [2] (setting [7]) is under 100 nM.
The compound `COCCOCCOCCOCCOCCOCCOCCOCCOCCOCCOCCOCCOCCOCCOCCOCCOCCOCCOCCOCCOCCOCCOCCOCCNC(=O)CCC(=O)N[C@@H](CCCNC(=N)N)C(=O)NCCN1CCC(NC(=O)C(=O)Nc2ccc(Cl)cc2)CC12CCCCC2` (stereo partly drawn) [TKB-003] showed a CC50 in data set [4] of 40 ± 14 µM. Further, the IC50 in data set [2] (setting [8]) was under 100 nM.
As for `CCCCCCCCCCCCCCCCNC(=O)CCC(=O)OC(CCCNC(=N)N)C(=O)NCCN1CCC(NC(=O)C(=O)Nc2ccc(Cl)cc2)CC12CCCCC2` (stereo not drawn) [YIS-527, 1-((2-(4-(2-((4-chlorophenyl)amino)-2-oxoacetamido)-1-azaspiro[5.5]undecan-1-yl)ethyl)amino)-5-guanidino-1-oxopentan-2-yl 4-(hexadecylamino)-4-oxobutanoate], the CC50 at 48 h in data set [1] worked out at 17 ± 0.22 µM. Besides, the “decomposition releasing the alkyl or PEG chain” value in data set [3] is “decomposition reaction was observed”. The “SI (selectivity index)” value in data set [2] was 14. Moreover, the IC50 in data set [2] (setting [7]) is 1200 ± 110 nM.
